Laboratory results taken from publication PMC12064818, “A general assay platform to study protein pharmacology using ligand-dependent structural dynamics” (Nature Communications, 2025).

What follows are compounds tested against T1, FLuc-C-HiBiT (Photinus pyralis, UniProt P08659) (assay: biochemical). Conditions: enzyme activity, 10 uM ATP; read-out: IC50 or SDR50 (mM) / FLuc E.
T1 construct: firefly luciferase with C-terminal HiBiT tag, E. coli expressed
T1 sequence (P08659 whole entry, looked up): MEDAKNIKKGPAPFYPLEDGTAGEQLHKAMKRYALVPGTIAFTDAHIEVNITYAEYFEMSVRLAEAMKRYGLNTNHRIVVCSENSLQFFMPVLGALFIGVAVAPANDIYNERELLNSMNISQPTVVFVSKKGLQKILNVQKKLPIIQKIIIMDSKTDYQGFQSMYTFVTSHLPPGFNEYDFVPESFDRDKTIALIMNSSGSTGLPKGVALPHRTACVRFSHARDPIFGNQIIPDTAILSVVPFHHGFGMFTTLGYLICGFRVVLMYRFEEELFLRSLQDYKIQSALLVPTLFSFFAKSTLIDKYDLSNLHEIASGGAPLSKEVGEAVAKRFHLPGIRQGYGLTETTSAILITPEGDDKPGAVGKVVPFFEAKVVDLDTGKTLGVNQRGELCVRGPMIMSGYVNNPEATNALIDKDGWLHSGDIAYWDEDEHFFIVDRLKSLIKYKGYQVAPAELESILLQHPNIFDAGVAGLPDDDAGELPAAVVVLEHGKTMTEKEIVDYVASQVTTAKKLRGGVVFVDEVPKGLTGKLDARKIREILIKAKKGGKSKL

IC50 | Structure (SMILES)
0.00221 mM | N#Cc1c(-n2ncnc2-c2ccccc2Cl)sc2c1CCCCC2 [NCGC00099372-01]
0.0176 mM | c1ccc2cc(-c3nc(C4CCOC4)no3)ncc2c1 (stereo not drawn) [NCGC00447332-01]
0.0161 mM | O=C1c2cnc(-c3ccccc3)nc2OCCN1CC1CC1 [NCGC00413518-01]
0.0124 mM | O=C(Nc1ccccc1C(=O)O)c1cccc([S+](=O)([O-])N2CCCC2)c1 [NCGC00098464-01]
0.0202 mM | COc1ccc(-c2ccc(CN3CC(C)(NC(C)=O)C3)s2)cn1 [NCGC00410343-01]
0.0124 mM | O=C(Nc1ccc([C@H]2OCC(=O)N(C3CCOCC3)[C@@H]2CO)cc1)c1ccc(C(F)(F)F)cc1 [NCGC00391115-01]
0.000495 mM | COc1ccc(CNC(=O)Nc2cccc(-c3ccc(N4CCCCC4)nn3)c2)cc1 [NCGC00427646-01]
> 0.03 mM | Brc1ccccc1-n1ncc2c1ncn1nc(Cc3ccccc3)nc21 [NCGC00115124-01]
> 0.03 mM | N#Cc1ccc(C(=O)Nc2ccccc2-c2nc3ccccc3s2)c(F)c1 [NCGC00103058-01]
0.00111 mM | COc1ccc(C)cc1NC(=O)c1ccc2c(Cl)c3c(nc2c1)CCC3 [NCGC00111420-01]
0.00989 mM | Cc1cccc(NC(=O)c2c(N)sc3c2CCC(C)C3)c1 (stereo not drawn) [NCGC00099772-01]
0.014 mM | Cc1ccc2nc(-c3ccc(NC(=O)COc4ccccc4C(C)(C)C)cc3)sc2c1 [NCGC00098265-01]
0.00989 mM | Cc1ccc(OCC(=O)Nc2cccc(-c3nc4ccccc4s3)c2)cc1 [NCGC00119153-02]
> 0.03 mM | COc1cccc(C(=O)Nc2ccccc2-c2nc3ccccc3s2)c1 [NCGC00102557-01]
0.00495 mM | CCOC(=O)N1CCc2c(sc(NCc3sccc3C)c2C(=O)Nc2ccc(OC)cc2OC)C1 [NCGC00140803-01]
0.000624 mM | Cc1ccc2nc(-c3ccc(NC(=O)CSc4nnc(C)s4)cc3)sc2c1 [NCGC00598135-01]
> 0.03 mM | CCC(CC)COC(=O)[C@H](C)N[P@](=O)(OC[C@H]1O[C@@](C#N)(c2ccc3c(N)ncnn23)[C@H](O)[C@@H]1O)Oc1ccccc1 [NCGC00686694-05]
> 0.03 mM | O=C(Nc1ccccc1)N1CCc2nc(C3CC3)nc(-c3ccc(Cl)cc3)c2C1 [NCGC00480419-01]
0.0111 mM | Cc1ccc(NC(=O)N2CCC(CCNC(=O)C3CC3)CC2)cc1 [NCGC00424850-01]
0.00989 mM | CC(C)c1ccc(C(=O)Nc2cccc3cccnc23)cc1 [NCGC00103193-01]
0.0124 mM | COc1ccc(C(=O)Nc2cc(C(C)C)c(O)c([S+](=O)([O-])c3ccc(Cl)cc3)c2C)cc1 [NCGC00102536-01]

IC50 | Structure (SMILES)
0.0161 mM | Cc1ccccc1-c1ccc(COc2ccc3c(cnn3CCC(=O)O)c2)cc1 [NCGC00418125-01]
0.00495 mM | O=C(Nc1cccc(-c2ccc(N3CCOCC3)nn2)c1)Nc1cccc(C(F)(F)F)c1 [NCGC00427594-01]
0.0007 mM | COc1ccc(NC(=O)Cn2c(SCc3ccc(C)cc3)nc3cccnc32)cc1OC [NCGC00123978-01]
0.0111 mM | Cc1ccc2oc(-c3ccc(C)c(NC(=O)/C=C/c4ccc(Cl)cc4)c3)nc2c1 [NCGC00103154-01]
> 0.03 mM | NC(=O)C1CCN(c2ncnc3c2cnn3-c2cccc(Cl)c2)CC1 [NCGC00139154-01]
0.000124 mM | Cc1ccc(/C=C/c2nc3ccccc3n2S(=O)(=O)c2cccc(Cl)c2)cc1 [NCGC00140605-01]
0.018 mM | CCCN1CCc2nc(C(=O)Nc3ccccc3)oc2CC1 [NCGC00413331-01]
0.018 mM | CNC(=O)c1cccc(-c2cnc(Nc3ccccc3)c3c2CCO3)c1 [NCGC00412768-01]
0.00161 mM | O=C1c2cnc(-c3cc4ccccc4o3)nc2OCCN1Cc1ccccc1 [NCGC00413600-01]
0.00556 mM | CCN(CC)C(=O)N1CCOC(c2ccc3cc(OC)ccc3c2)C1 (stereo not drawn) [NCGC00431059-01]
0.0157 mM | COC(=O)[C@@H]1C[C@H](NC(=O)c2ccc(Oc3ccccc3)cc2)CN1C [NCGC00433761-01]
0.0197 mM | c1ccc(-c2ccnc(NCCc3c[nH]c4ccccc34)n2)nc1 [NCGC00446312-01]
0.00989 mM | COc1ccccc1C(=O)Nc1ccc(-c2nc3ccccc3s2)c(C)c1 [NCGC00137840-01]
> 0.03 mM | COc1ccc(-c2nc3ccccc3s2)cc1NC(=O)c1ccc(C#N)cc1F [NCGC00103038-01]
0.0124 mM | CCN1c2cc(C(=O)Nc3ccc(N(C)C)cc3)ccc2C(=O)N2CCCCC21 (stereo not drawn) [NCGC00452497-01]
0.000394 mM | Cc1ccc(CSc2nc3cccnc3n2Cc2ccc(C(=O)NC3CC3)cc2)cc1 [NCGC00123844-01]
0.00248 mM | COc1ccc2cc(C3CN(C(=O)c4cccc(CO)c4)CCO3)ccc2c1 (stereo not drawn) [NCGC00430133-01]
> 0.03 mM | NC(=O)C1CCN(c2ncnc3c2cnn3-c2ccccc2)CC1 [NCGC00141852-02]
0.0226 mM | c1ccc(Nc2ncc(-c3cccnc3)c3c2OCC3)cc1 [NCGC00412806-01]
0.00197 mM | CCCN1C(=O)c2ccc(-c3nc4ccccc4s3)cc2C1=O [NCGC00597617-01]
0.018 mM | O=C1c2cnc(-c3ccsc3)nc2OCCN1c1ccccc1 [NCGC00413608-01]

IC50 | Structure (SMILES)
> 0.03 mM | CCc1ccc(CNC(=O)C2CCCN(c3nn4cc(-c5ccc(F)cc5)nc4s3)C2)cc1 (stereo not drawn) [NCGC00123722-01]
0.00989 mM | COc1ccc(NC(=O)Nc2ccc(C)n(CC(=O)N3CCCCCC3)c2=O)cc1 [NCGC00430834-01]
0.00989 mM | COc1cccc(C(=O)Nc2cccc(OCc3cc(=O)n4c5c(sc4n3)CCCC5)c2)c1 [NCGC00111495-01]
0.0202 mM | Cc1nn(-c2ccc(C(C)(C)C)cc2)c(C)c1[C@@H]1C=C[C@@H](NC(=O)COCC(=O)O)C1 [NCGC00400262-01]
> 0.03 mM | CCOc1ccc2nc(N(Cc3cccnc3)C(=O)c3cccs3)sc2c1 [NCGC00136637-01]
0.00989 mM | COc1ccc(C(=O)NCCC2CCN(C(=O)Nc3cc(F)cc(F)c3)CC2)cc1 [NCGC00425013-01]
0.00989 mM | CN1c2cc(C(=O)Nc3ccc4c(c3)OCCO4)ccc2C(=O)N2CCCCC21 (stereo not drawn) [NCGC00452420-01]
> 0.03 mM | CCOc1ccc(C(=O)Nc2cc(-c3nc4ccccc4s3)ccc2OC)cc1 [NCGC00103040-01]
> 0.03 mM | O=C(Nc1cc(-c2nc3ccccc3s2)ccc1Cl)c1cc2ccccc2o1 [NCGC00098905-01]
0.00176 mM | CCc1ccc(NC(=O)c2cc3ccccn3n2)cc1 [NCGC00127901-01]
0.00394 mM | Cc1ccc(C(=O)Nc2cccc(-c3ccc(N4CCN(C)CC4)nn3)c2)cc1C [NCGC00427552-01]
0.00989 mM | Cc1ccc(-n2nc(C)c([C@@H]3C=C[C@@H](NC(=O)Nc4ccc(Cl)cc4)C3)c2C)cc1Cl [NCGC00400070-01]
0.0124 mM | Cc1ccc(C(=O)COC(=O)c2cc(-c3cccs3)nc3ccccc23)cc1 [NCGC00100788-01]
0.018 mM | Cc1ccccc1-c1cccc(COc2cnc3c(ccn3CC(=O)O)c2)c1 [NCGC00418175-01]
0.00197 mM | CCOc1ccc(C(=O)Nc2onc3c2CCCC3)cc1 [NCGC00115912-01]
0.018 mM | c1cncc(Nc2cc3c(cn2)CN(Cc2cc[nH]n2)CCN3)c1 [NCGC00411048-01]
0.0202 mM | O=C(Nc1cccnc1)c1nc2c(o1)CCN(Cc1nccs1)CC2 [NCGC00413267-01]
0.00989 mM | CN1CCCCCCN(C(=O)Nc2ccc3c(c2)OCCO3)CCC1=O [NCGC00466735-01]
> 0.03 mM | COc1cc(OC)cc(C(=O)Nc2ccc(-c3nc4ccccc4s3)cc2C)c1 [NCGC00103060-01]
0.0114 mM | Fc1ccc(Nc2ncc(-c3cccnc3)c3c2OCC3)cc1 [NCGC00412761-01]
0.0111 mM | COc1ccc(-c2cc(N3CCCC(NC(=O)c4ccncc4)C3)[nH]n2)cc1 (stereo not drawn) [NCGC00437632-01]

IC50 | Structure (SMILES)
0.00248 mM | O=C(Nc1cccnc1)c1cc(-c2ccc(Cl)cc2)on1 [NCGC00105781-01]
0.000624 mM | Cc1ccc(-c2nc(-c3ccccn3)no2)cc1Cl [NCGC00070724-01]
0.0161 mM | CC(C)(C)c1ccc(C(=O)Nc2ccc([C@H]3OCC(=O)N[C@@H]3CO)cc2)cc1 [NCGC00396656-01]
0.0124 mM | O=C(Nc1ccccc1C(=O)O)c1ccccc1 [NCGC00245456-03]
0.00881 mM | CCC(=O)Nc1ccc2nnc(-c3ccc(C(=O)Nc4ccc5c(c4)OCCO5)cc3)n2c1 [NCGC00429833-01]
0.0111 mM | O=C(NCc1ccoc1)c1ccc2nc(-c3ccc(F)cc3)cn2c1 [NCGC00425034-01]
0.00176 mM | Cc1ccc(-n2ncc3c(NC4CCCCC4)ncnc32)cc1C [NCGC00139081-01]
0.018 mM | Cc1cc(-c2cc3c(cn2)CN(Cc2c[nH]cn2)CCN3)ccn1 [NCGC00411148-01]
> 0.03 mM | Cc1cccc(-c2cccc(NC(=O)C3CCCN(C(=O)CC(F)(F)F)C3)c2)c1 (stereo not drawn) [NCGC00425452-01]
> 0.03 mM | Oc1cc(-c2nc3ccccc3s2)cc2c1OCCN(Cc1c[nH]nc1-c1ccc(Cl)cc1)C2 [NCGC00240676-01]
0.018 mM | O=C(Nc1cccnc1)c1nc2c(o1)CCN(Cc1ccc(O)cc1)CC2 [NCGC00413415-01]
0.018 mM | CC(=O)N1CCNc2cc(-c3cccc(N4CCOCC4)c3)ncc2C1 [NCGC00411247-01]
0.00624 mM | CN(C)c1cccc(C(=O)NC2CCN(c3cc(-c4ccc(Cl)cc4)n[nH]3)CC2)c1 [NCGC00437038-01]
0.0007 mM | Cc1c(NC(=O)Cc2ccccc2)cccc1-c1nc2ccccc2s1 [NCGC00595047-01]
0.00556 mM | COc1ccc(-c2cn3nc(SCC(=O)Nc4cc(C)cc(C)c4)ccc3n2)cc1 [NCGC00134460-01]
0.00442 mM | Cc1ccc(C2=CC(c3ccccc3C)n3c(nc4ccccc43)N2)cc1 (stereo not drawn) [NCGC00140747-01]
0.018 mM | CN1CCOc2nc(-c3cccc(OC(F)(F)F)c3)ncc2C1=O [NCGC00413529-01]
> 0.03 mM | CCc1ccc2oc(-c3ccc(NC(=O)c4ccc(OC)c(Br)c4)cc3)nc2c1 [NCGC00098340-01]
> 0.03 mM | Fc1ccc(-n2ncc3c(N4CCC(Cc5ccccc5)CC4)ncnc32)cc1 [NCGC00139053-01]
> 0.03 mM | N[S+](=O)([O-])c1cccc(N/C=C2\C(=O)Nc3ccccc32)c1 [NCGC00242167-02]

Structure (SMILES) | IC50
COc1ccc(-c2nc(-c3ccc(C(=O)O)cc3)no2)cc1 [NCGC00168104-02] | 0.000111 mM
